{
  "source": "patent US11807906B2",
  "about": "“Peroxisome biomarkers in HIV disease progression and peroxisome activating drugs for HIV treatment” (priority 2017, dated 2023)",
  "key": {"HIV p24 protein": {"test_system": "HIV p24 protein", "assay": "HIV p24 immunoblot in niclosamide-pretreated HeLa CD4+ cells", "format": "cell-based", "conditions": "HeLa CD4+ cells pretreated 24 hrs, HIV MOI=0.5, 48 hrs, relative to DMSO, FIG. 18/19", "procedure": "(§1) HeLa CD4+ cells were pretreated with the indicated concentrations of the peroxisome proliferator, niclosamide for 24 hrs or DMSO alone (vehicle control). Cells were then infected with HIV, MOI=0.5) for 48 hrs after which levels of the viral protein p24 and peroxisomal protein were measured by immunoblotting. Actin served as loading control."}, "[1]": {"test_system": "niclosamide-treated cells", "assay": "Relative cell viability by ATP levels in cell lysates", "format": "cell-based", "conditions": "below 1 micromolar, 72 hours, vs DMSO, FIG. 20", "procedure": "Cells treated with niclosamide or DMSO were harvested after 72 hours. Relative cell viability was determined by measuring ATP levels in the cell lysates."}, "HIV": {"test_system": "HIV", "assay": "HIV p24 ELISA in niclosamide-pretreated HeLa CD4+ cells", "format": "cell-based", "conditions": "HeLa CD4+ cells pretreated 24 hrs, HIV MOI=0.5, 48 hrs, vs DMSO, FIG. 17", "procedure": "HeLa CD4+ cells were pretreated with the indicated concentrations of the peroxisome proliferator, niclosamide for 24 hrs or DMSO alone (vehicle control). Cells were then infected with HIV, MOI=0.5) for 48 hrs after which levels of the viral protein p24 were measured by ELISA."}, "peroxisomal protein PEX7": {"test_system": "peroxisomal protein PEX7", "assay": "PEX7 immunoblot in niclosamide-pretreated HIV-infected HeLa CD4+ cells", "format": "cell-based, human", "conditions": "48 hrs, relative to DMSO", "procedure": "as §1"}},
  "note": "Entries after “also recorded” stand apart in the source; their conditions may differ.",
  "data": [
    {"molecule": "O=C(Nc1ccc([N+](=O)[O-])cc1Cl)c1cc(Cl)ccc1O", "note": "[niclosamide, 5-chloro-N-(2-chloro-4-nitrophenyl)-2-hydroxybenzamide]", "values": [
      {"measurement": "HIV p24 protein level by immunoblotting", "setting": "HIV p24 protein", "result": "inhibits expression; also recorded: inhibits HIV replication"},
      {"measurement": "HIV p24 protein level by immunoblotting", "setting": "HIV p24 protein; listed as Niclosamide", "result": "inhibited expression; also recorded: inhibited HIV replication"},
      {"measurement": "cytotoxicity (relative cell viability, ATP levels)", "setting": "[1]", "result": "not cytotoxic"},
      {"measurement": "HIV replication (levels of viral protein p24 by ELISA)", "setting": "HIV", "result": "potently and significantly inhibits HIV replication"},
      {"measurement": "HIV replication (levels of viral protein p24 by ELISA)", "setting": "HIV; listed as Niclosamide", "result": "significantly inhibited HIV replication"},
      {"measurement": "PEX7 protein level by immunoblotting", "setting": "peroxisomal protein PEX7; FIG. 19", "result": "increases expression"},
      {"measurement": "PEX7 protein level by immunoblotting", "setting": "peroxisomal protein PEX7; FIG. 19, listed as Niclosamide", "result": "increased expression"}
    ]}
  ]
}
